Reference: the supplement of paper PMC13380429

Tests used:
Settings in all cases: 72 h
[1] = system: HepG2; experiment: drug sensitivity score (DSS) for viability; higher = more toxic; extreme values may be limits of the assay
[2] = system: U2OS; experiment: as above
[3] = system: Vero E6; experiment: as above
[4] = system: Caco-2; experiment: as above
[5] = system: Calu-3; experiment: as above
[6] = system: HepG2; experiment: relative viability EC50 (midpoint between 100% and the lowest measured viability); higher = less toxic
[7] = system: U2OS; experiment: as above
[8] = system: Vero E6; experiment: as above
[9] = system: Caco-2; experiment: as above
[10] = system: Calu-3; experiment: as above
[11] = system: HepG2; experiment: cell viability relative to DMSO; higher = less toxic
[12] = system: U2OS; experiment: as above
[13] = system: Vero E6; experiment: as above
[14] = system: Caco-2; experiment: as above
[15] = system: Calu-3; experiment: as above

Q: For `CC(C)[C@H](N)C(=O)OCC(CO)OCn1cnc2c(=O)nc(N)[nH]c21` (mixture of isomers) [valganciclovir], which drug sensitivity score [1] is on record?
A: 0

Q: And the drug sensitivity score [2]?
A: 0

Q: And the drug sensitivity score [3]?
A: 0

Q: And the drug sensitivity score [4]?
A: 0.3

Q: What about the drug sensitivity score [5] of the same compound?
A: 0

Q: And the “relative viability EC50” value [6]?
A: > 10 µM

Q: And the “relative viability EC50” value [7]?
A: > 10 µM

Q: And the “relative viability EC50” value [8]?
A: > 10 µM

Q: And the “relative viability EC50” value [9]?
A: > 10 µM

Q: And the “relative viability EC50” value [10]?
A: > 10 µM

Q: And the cell viability ([11]; 1 nM)?
A: 97.9%

Q: What about the cell viability ([11]; 10 nM) of the same compound?
A: 95%

Q: What about the cell viability ([11]; 100 nM) of the same compound?
A: 97.3%

Q: And the cell viability ([11]; 1000 nM)?
A: 95.8%

Q: And the cell viability ([11]; 10000 nM)?
A: 90.5%

Q: And the cell viability ([12]; 1 nM)?
A: 90.7%

Q: What about the cell viability ([12]; 10 nM) of the same compound?
A: 102%

Q: What about the cell viability ([12]; 100 nM) of the same compound?
A: 98.2%

Q: What about the cell viability ([12]; 1000 nM) of the same compound?
A: 104%

Q: What about the cell viability ([12]; 10000 nM) of the same compound?
A: 108%

Q: What about the cell viability ([13]; 1 nM) of the same compound?
A: 99.3%

Q: And the cell viability ([13]; 10 nM)?
A: 91.8%

Q: What about the cell viability ([13]; 100 nM) of the same compound?
A: 103%

Q: And the cell viability ([13]; 1000 nM)?
A: 97.4%

Q: What about the cell viability ([13]; 10000 nM) of the same compound?
A: 97.4%

Q: What about the cell viability ([14]; 1 nM) of the same compound?
A: 94.3%

Q: And the cell viability ([14]; 10 nM)?
A: 107%

Q: And the cell viability ([14]; 100 nM)?
A: 103%

Q: And the cell viability ([14]; 1000 nM)?
A: 114%

Q: What about the cell viability ([14]; 10000 nM) of the same compound?
A: 80%

Q: And the cell viability ([15]; 1 nM)?
A: 107%

Q: And the cell viability ([15]; 10 nM)?
A: 101%

Q: And the cell viability ([15]; 100 nM)?
A: 108%

Q: What about the cell viability ([15]; 1000 nM) of the same compound?
A: 104%

Q: What about the cell viability ([15]; 10000 nM) of the same compound?
A: 91.8%

Q: How did the drug sensitivity score [1] turn out when `CN(C)CC[C@@]1(c2ccc(Cl)cc2)Cc2ccccc2C(=O)O1` (racemic) [AC-7954-(+/-)] was run?
A: 0

Q: And the drug sensitivity score [2]?
A: 0

Q: What about the drug sensitivity score [3] of the same compound?
A: 0

Q: What about the drug sensitivity score [4] of the same compound?
A: 0

Q: And the drug sensitivity score [5]?
A: 0

Q: What about the “relative viability EC50” value [6] of the same compound?
A: > 10 µM

Q: What about the “relative viability EC50” value [7] of the same compound?
A: > 10 µM

Q: And the “relative viability EC50” value [8]?
A: > 10 µM

Q: What about the “relative viability EC50” value [9] of the same compound?
A: > 10 µM

Q: What about the “relative viability EC50” value [10] of the same compound?
A: > 10 µM

Q: And the cell viability ([11]; 1 nM)?
A: 89.8%

Q: And the cell viability ([11]; 10 nM)?
A: 104%

Q: And the cell viability ([11]; 100 nM)?
A: 104%

Q: What about the cell viability ([11]; 1000 nM) of the same compound?
A: 96.4%

Q: And the cell viability ([11]; 10000 nM)?
A: 94.8%

Q: What about the cell viability ([12]; 1 nM) of the same compound?
A: 99%

Q: What about the cell viability ([12]; 10 nM) of the same compound?
A: 94.9%

Q: And the cell viability ([12]; 100 nM)?
A: 99.4%

Q: And the cell viability ([12]; 1000 nM)?
A: 105%

Q: And the cell viability ([12]; 10000 nM)?
A: 102%

Q: What about the cell viability ([13]; 1 nM) of the same compound?
A: 91.4%

Q: What about the cell viability ([13]; 10 nM) of the same compound?
A: 94.8%

Q: What about the cell viability ([13]; 100 nM) of the same compound?
A: 88.3%

Q: What about the cell viability ([13]; 1000 nM) of the same compound?
A: 92.8%

Q: And the cell viability ([13]; 10000 nM)?
A: 100%

Q: What about the cell viability ([14]; 1 nM) of the same compound?
A: 103%

Q: What about the cell viability ([14]; 10 nM) of the same compound?
A: 92.4%

Q: What about the cell viability ([14]; 100 nM) of the same compound?
A: 98.3%

Q: And the cell viability ([14]; 1000 nM)?
A: 102%

Q: And the cell viability ([14]; 10000 nM)?
A: 106%

Q: What about the cell viability ([15]; 1 nM) of the same compound?
A: 98.2%

Q: What about the cell viability ([15]; 10 nM) of the same compound?
A: 104%

Q: And the cell viability ([15]; 100 nM)?
A: 103%

Q: What about the cell viability ([15]; 1000 nM) of the same compound?
A: 96.5%

Q: What about the cell viability ([15]; 10000 nM) of the same compound?
A: 104%

Q: What does the source list for `CN/C(=N\S(=O)(=O)c1ccc(Cl)cc1)N1C[C@H](c2ccccc2)C(c2ccc(Cl)cc2)=N1` (racemic) [SLV-319-(+/-)]?
A: drug sensitivity score [1]: 0.1; drug sensitivity score [2]: 0; drug sensitivity score [3]: 0; drug sensitivity score [4]: 0.2; drug sensitivity score [5]: 0; relative viability EC50 [6]: > 10 µM; relative viability EC50 [7]: > 10 µM; relative viability EC50 [8]: > 10 µM; relative viability EC50 [9]: > 10 µM; relative viability EC50 [10]: > 10 µM; cell viability ([11]; 1 nM): 108%; cell viability ([11]; 10 nM): 94.2%; cell viability ([11]; 100 nM): 99.9%; cell viability ([11]; 1000 nM): 89.6%; cell viability ([11]; 10000 nM): 93.7%; cell viability ([12]; 1 nM): 99.9%; cell viability ([12]; 10 nM): 99.1%; cell viability ([12]; 100 nM): 102%; cell viability ([12]; 1000 nM): 98.9%; cell viability ([12]; 10000 nM): 93.1%; cell viability ([13]; 1 nM): 98.1%; cell viability ([13]; 10 nM): 105%; cell viability ([13]; 100 nM): 100%; cell viability ([13]; 1000 nM): 91.3%; cell viability ([13]; 10000 nM): 94.8%; cell viability ([14]; 1 nM): 95.1%; cell viability ([14]; 10 nM): 96.3%; cell viability ([14]; 100 nM): 100%; cell viability ([14]; 1000 nM): 103%; cell viability ([14]; 10000 nM): 83.1%; cell viability ([15]; 1 nM): 107%; cell viability ([15]; 10 nM): 98.5%; cell viability ([15]; 100 nM): 100%; cell viability ([15]; 1000 nM): 118%; cell viability ([15]; 10000 nM): 111%
